# Measurements as given in patent US6271238A, “Acetamide derivatives and protease inhibitors” (Nippon Kayaku Kabushiki Kaisha, priority 1996, dated 2001).
# Where a name gives a salt, the structure may show the parent alone.
# System: guinea pig eosinophils
# Experiment: Inhibitory action on eosinophils (release of active oxygen from guinea pig eosinophils)
# Type: cell-based
# Conditions: Cavia porcellus, Eosinophil, 5 min, PAF, luminol chemiluminescence for 5 minutes
# Description: Inhibitory activity on eosinophil activation
# (A) Preparation of eosinophils
# Polymyxin B (produced by Sigma) was administered intraperitoneally into a guinea pig (Hartley, male, 6-week-old) at a dosage of 1 mg once every week for 6 to 8 weeks. After the final administration of polymyxin B. 50 ml of PBS (phosphate-buffered saline) was injected into the intraperitoneal cavity of the guinea pig, and cells were recovered. The cells were centrifuged at 800 rpm for 5 minutes and the abdomen infiltration cells were collected as precipitates and then suspended in 1 ml of 40% Ficoll (40% Ficoll (produced by Pharmacia), HBSS (Hanks' balanced salt solution) and layered on a Ficoll discontinuous density gradient (40 to 90%). It was centrifuged at 1500 rpm for 40 minutes, and the eosinophil fraction was recovered. In this operation, eosinophils of 99% or more purity were usually obtained. Further, the cells were washed twice with RPMI 1640 medium (10% BSA (bovine serum albumin available from Boehringer Mannheim), suspended again at a predetermined density, and used in the objective experiment.
# (B) Inhibitory action on eosinophils (inhibitory action on release of active oxygen from guinea pig eosinophils)
# The eosinophils (99% or more purity) obtained by the Ficoll density gradient method in (A) above were suspended at a cell density of 4×10^5 in a buffer solution (0.136 M sodium chloride, 2.7 mM potassium chloride, 1.8 mM calcium chloride, 1.0 mM magnesium chloride, 11.9 mM sodium hydrogen carbonate, 5.5 mM D-glucose, 5.0 mM HEPES, 0.36 mM sodium dihydrogen phosphate, pH 7.2). Each drug (2 μl) and 180 μl of the cell suspension were put to a 96-well multi-well plate (for chemiluminescence measurement, white type) previously kept at 37° C., and incubated at 37° C. for 10 minutes. After incubation, 20 μl of PAF (platelet-activating factor) (5×10^-6 M) and 20 μl of a luminol solution were added to it and immediately examined for its chemiluminescence (Luminoskan Labosystem). The chemiluminescence for 5 minutes were measured to calculate 50% inhibitory concentration (IC50: μM).
row,Compound,IC50
1,CCCCC(=O)C(=O)C(Cc1ccccc1)NC(=O)Cn1c(-c2ccccc2)ncc(N)c1=O (centres unmarked) [Compound 44],18 µM
2,Nc1cnc(-c2ccccc2)n(CC(=O)NC(Cc2ccccc2)C(=O)C(=O)CCCc2ccccc2)c1=O (centres unmarked) [Compound 40],5.6 µM
3,"CC(=O)C(=O)C(Cc1cccc(F)c1)NC(=O)Cn1c(-c2ccccc2)ncc(N)c1=O (centres unmarked) [Compound 52, 2-(5-Amino-6-oxo-2-phenyl-1,6-dihydropyrimidine-1-yl)-N-{1-(3-fluorophenyl)methyl-2,3-dioxo}butylacetamide]",26 µM

# Other lines, results leading:
row,IC50,Compound
1,3 µM,"Nc1cnc(-c2ccccc2)n(CC(=O)NC(Cc2ccccc2)C(=O)C(=O)CCCn2ccccc2=O)c1=O (centres unmarked) [Compound 73, 2-(5-Amino-6-oxo-2-phenyl-1,6-dihydropyrimidine-1-yl)-N-{2,3-dioxo-1-phenylmethyl-6-(2-oxo-1,2-dihydropyridine-1-yl)}hexylacetamide hydrochloride]"
2,62 µM,CCOC(=O)CCCC(=O)C(=O)C(Cc1cccc(F)c1)NC(=O)Cn1c(-c2ccccc2)ncc(N)c1=O (centres unmarked) [Compound 54]
